Values of other authors in patent US7700612B2, “Di-ester prodrugs of camptothecin, process for their preparation and their therapeutical applications” (Abraxis BioScience, LLC, priority 2003, dated 2010).

Columns and labels:
mouse leukemia L 1210 = details: initial test, Wall et al.
[1] = animal models; J. Med. Chem. 23, 554 (1980)

## CC[C@@]1(O)C(=O)OCc2c1cc1n(c2=O)Cc2cc3ccccc3nc2-1 [Camptothecin]
Mouse leukemia L 1210
  activity against mouse leukemia L 1210 system: active
other
  solubility in water: insoluble

## CC[C@@](O)(C(=O)[O-])c1cc2n(c(=O)c1CO)Cc1cc3ccccc3nc1-2.[Na+] [CPT sodium carboxylate]
[1]
  potency relative to the parent camptothecin: 10-20%
other
  solubility in water: water-soluble
